Data taken from ChEMBL document CHEMBL1135132, “Synthesis of more potent analogues of the acetylcholinesterase inhibitor, huperzine B” (Bioorg Med Chem Lett, 2002).
pKi: −log10 of the molar value.

Biological target: T1, Acetylcholinesterase (Bos taurus, UniProt P23795)
T1 sequence (P23795 whole entry): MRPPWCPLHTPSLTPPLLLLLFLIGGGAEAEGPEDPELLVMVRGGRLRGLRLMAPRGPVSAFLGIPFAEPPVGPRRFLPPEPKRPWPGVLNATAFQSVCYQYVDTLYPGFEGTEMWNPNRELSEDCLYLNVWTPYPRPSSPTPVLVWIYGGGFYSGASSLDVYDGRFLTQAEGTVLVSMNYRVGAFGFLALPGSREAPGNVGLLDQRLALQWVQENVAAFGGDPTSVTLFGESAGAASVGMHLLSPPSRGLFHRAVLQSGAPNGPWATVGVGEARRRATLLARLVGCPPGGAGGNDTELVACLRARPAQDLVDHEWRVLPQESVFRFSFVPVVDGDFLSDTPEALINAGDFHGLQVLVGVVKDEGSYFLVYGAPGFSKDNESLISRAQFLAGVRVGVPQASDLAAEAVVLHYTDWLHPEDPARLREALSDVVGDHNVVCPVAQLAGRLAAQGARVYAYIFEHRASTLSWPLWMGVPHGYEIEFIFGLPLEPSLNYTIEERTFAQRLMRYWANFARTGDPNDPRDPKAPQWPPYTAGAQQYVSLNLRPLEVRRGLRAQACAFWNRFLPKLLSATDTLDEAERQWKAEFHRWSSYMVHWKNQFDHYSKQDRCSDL
Test: Inhibitory constant against fetal bovine serum (FBS) acetylcholinesterase

## C/C=C1\[C@H]2C=C(C)C[C@]1(N)c1ccc(=O)[nH]c1C2 [HUPERZINE A]
  pKi: 7.62

## CC1=CC2Cc3[nH]c(=O)ccc3C3(C1)NCCC(C)=C23 (stereo not given)
  pKi: 5.69

## CC1=CC2Cc3nc(O)ccc3C3(C1)NCC(C)=C23 (stereo not given)
  pKi: 6.66

## CCC1=C2C3C=C(C)CC2(NC1)c1ccc(O)nc1C3 (stereo not given)
  pKi: 6.40

## CC1=C[C@H]2Cc3[nH]c(=O)ccc3[C@]3(C1)NCCC[C@H]23 [HUPERZINE B]
  pKi: 6.10
